The source of these data is patent US6534494B1, “Process for the preparation of cefuroxime axetil in an amorphous form” (Ranbaxy Laboratories Limited, priority 1998, dated 2003).

For data set [1] the following is noted: amorphous form, purity at least 95%; cited from earlier work.
The conditions of data set [2]: compared with the crystalline form; cited from earlier work.
Data set [3] is described as follows: Particle size by scanning electron microscopy. The data set is classed as physicochemical. The following applies: crystalline feed material before milling. Here is the method: 30 g of crystalline cefuroxime axetil S isomer with a particle size of 10-300 μm and having a bulk density of 0.391 g/cc, together with 3 g of sodium lauryl sulphate (SLS) were placed in the bowl of a Micros ‘0’ Super Fine Mill. Cold water was circulated through the outer jacket. The mill was operated with main shaft rotation set at 1000 rpm for 120 mins. The inner temperature was maintained in the range from 19-24° C. […] Samples of the material were examined by scanning electron microscopy and by X-ray diffraction crystallography.
Crystalline cefuroxime axetil S isomer with a particle size of 10-300 μm and having a bulk density of 0.391 g/cc, a mixture of crystalline cefuroxime axetil S isomer with crystalline cefuroxime axetil R isomer with a particle size of 5-50 μm, and having a bulk density of 0.221 g/cc. and crystalline cefuroxime axetil R,S racemic mixture were tested for conversion from the crystalline form to an amorphous form in different trials. The feed material consisted of cefuroxime axetil together with sodium lauryl sulphate or cefuroxime axetil together with sodium lauryl sulphate and colloidal silica (Aerosil 200). Samples of the material were withdrawn at various times for X-ray diffraction crystallography using a XRG 3000 diffractometer, and for scanning electron photomicrography. […] The percent crystallinity for the samples from Examples 6-9 was estimated to be less than 5% in all cases confirming the conversion of cefuroxime axetil to a predominantly (at least 95%) amorphous form.

The nature of data set [4]: Bulk density of crystalline feed material. The data set is classed as physicochemical. The note with it: crystalline feed material before milling.
Where [5] appears, read: listed as Crystalline cefuroxime axetil S isomer.

With `CO/N=C(\C(=O)N[C@@H]1C(=O)N2C(C(=O)OC(C)OC(C)=O)=C(COC(N)=O)CS[C@H]12)c1ccco1` (some centres unmarked) [cefuroxime axetil in amorphous form, cefuroxime axetil], in data set [1], the chemical stability result is recorded as “adequate chemical stability”. Further, the bioavailability result in data set [2] is on record as “higher bioavailability than the crystalline form”.

`CO/N=C(\C(=O)N[C@@H]1C(=O)N2C(C(=O)OC(C)OC(C)=O)=C(COC(N)=O)CS[C@H]12)c1ccco1` (stereo partly drawn) [crystalline cefuroxime axetil R isomer, cefuroxime axetil]: the particle size in data set [3] was 5-50 μm. Moreover, in data set [4], the bulk density was 0.221 g/cc.

Consider `CO/N=C(\C(=O)N[C@@H]1C(=O)N2C(C(=O)OC(C)OC(C)=O)=C(COC(N)=O)CS[C@H]12)c1ccco1` (stereo partly drawn) [crystalline cefuroxime axetil S isomer, cefuroxime axetil], for which the particle size in data set [3] and in data set [3] (setting [5]) was 10-300 μm in each case. Also, the bulk density in data set [4] and in data set [4] (setting [5]) was 0.391 g/cc throughout.
